Reference: patent US12281098B2, “Five-membered-fused six-membered compound, preparation method, pharmaceutical composition and use” (HANGZHOU POLYMED BIOPHARMACEUTICALS, INC., priority 2021, dated 2025)
Read-outs that look alike come from different tables or passages of the source.

Columns and labels:
[1] = target: T1, IRAK4 kinase (Homo sapiens, UniProt Q9NWZ3); experiment: Compound inhibition of IRAK4 kinase activity (fluorescence microfluidic mobility shift assay); type: biochemical; conditions: 10 μM ATP, 6 nM IRAK4 kinase
T1 construct: purchased Carna 09-145
T1 sequence (Q9NWZ3 1-460): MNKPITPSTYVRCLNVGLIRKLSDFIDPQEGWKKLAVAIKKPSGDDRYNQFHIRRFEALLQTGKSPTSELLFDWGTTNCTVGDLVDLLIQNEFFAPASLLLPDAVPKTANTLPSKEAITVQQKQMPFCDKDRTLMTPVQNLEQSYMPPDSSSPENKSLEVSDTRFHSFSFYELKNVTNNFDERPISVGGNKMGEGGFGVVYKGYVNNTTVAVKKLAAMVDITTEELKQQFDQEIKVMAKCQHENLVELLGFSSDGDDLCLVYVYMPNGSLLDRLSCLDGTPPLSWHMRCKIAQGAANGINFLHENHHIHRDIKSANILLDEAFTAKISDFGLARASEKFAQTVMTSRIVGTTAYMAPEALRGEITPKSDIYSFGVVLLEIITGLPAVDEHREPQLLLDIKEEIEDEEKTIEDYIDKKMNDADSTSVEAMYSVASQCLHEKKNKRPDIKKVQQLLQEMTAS
Protocol: Based on the experimental method of fluorescence microfluidic mobility shift assay, the IC50 value of the compound for competitive binding of ATP to IRAK4 kinase was determined. The initial detection concentration of the compound was 10 μM, which was 4-fold serially diluted to 0.38 nM and assayed in duplicate. In this case, commercially available staurosporine was the standard control for the assay.
1) IRAK4 kinase was dissolved in kinase buffer (50 mM HEPES pH 7.5, 10 mM MgCl2, 2 mM DDT, and 0.01% Brij-35) at a final concentration of 6 nM.
2) The substrate peptide FAM-P8 and ATP were dissolved in the above kinase buffer, and the final concentrations of the substrate peptide FAM-P8 and ATP for IRAK4 were 3 μM and 10 μM, respectively.
3) Compound dilution: The compound was first diluted to 50 μM, and then 4-fold serially diluted with DMSO. In this case, the solution without compound and kinase served as the blank control, corresponding to the “minimum value” shown below; the solution without compound but containing kinase, adenosine 5′-triphosphate disodium salt hydrate, DMSO, and the buffer served as the positive control, corresponding to the “maximum value” shown below.
4) Kinase reaction and termination: 10 μL of the kinase buffer was added to a 384-well plate containing 5 μL of the compound to be tested, and the mixture was incubated at room temperature for 10 minutes; another 10 μL of buffer containing the substrate peptide and adenosine 5′-triphosphate disodium salt hydrate was added to the 384-well plate, and after incubation at 28° C. for 1 hour, 25 μL of termination solution (100 mM HEPES pH 7.5, 50 mM EDTA, 0.2% Coating Reagent #3, and 0.015% Brij-35) was added to each well to terminate the reaction.
5) Data reading: CaliperEZ Reader II instrument was used to read the conversion rate data. Setting conditions: downstream voltage as −500 V, upstream voltage as −2250 V, base pressure as −0.5 PSI, and screening pressure as −1.2 PSI.
6) Data calculation: the conversion rate data was copied from CaliperEZ Reader II, and the conversion rate was converted into inhibition rate data. The calculation formula is as follows: Inhibition percentage (%)=(maximum value−conversion rate)/(maximum value−minimum value)*100%
IC50 values were fitted with XLFit excel add-in version 5.4.0.8.

[2] = test system: THP-1 cells; experiment: LPS-stimulated cytokine (TNFα) release in THP-1; type: cell-based, Human; conditions: LPS 100 ng/mL, 5 hours, TNF-α ELISA, read-out: Inhibition IC50 (nM) of cytokines (TNFα) against LPS-stimulated inflammatory responses in THP-1 cells
Protocol: THP-1 cells were cultured in suspension in RPMI 1640 complete medium (containing 10% serum, 1% penicillin-streptomycin, and 55 μM β-mercaptoethanol). THP-1 cells were collected, centrifuged at 350×g at room temperature to discard the supernatant, and resuspended in RPMI 1640 complete medium to a concentration of 2×10^6 cells per mL. THP-1 cells were spread into a 96-well plate at a concentration of 2×10^5 cells per well, and different concentrations of the compound to be tested were added thereto. The plate was incubated in a 37° C. cell culture incubator with 5% CO2 for 60 minutes. 50 μL of LPS at a final concentration of 100 ng/mL was added to a 96-well plate, and incubated in a 37° C. cell culture incubator for 5 hours. The cell culture plate was then taken out from the incubator, and centrifuged at 350×g at low temperature for 5 minutes to collect 150 μL of the supernatant. Referring to the instructions in the Human TNF-α Duoset ELISA Kit, the level of TNF-α in the cell culture supernatant was detected.
Data on the inhibitory activity of cytokines (TNFα) against LPS-stimulated inflammatory responses in THP-1 cells are shown in Tables 3 and 4.

[3] = target: T2, IRAK4 protein in THP-1 cells (Homo sapiens, UniProt Q9NWZ3); experiment: IRAK4 protein degradation in THP-1 induced by PROTAC (Western Blot); type: cell-based; conditions: Table 6, estimated bins, GAPDH internal reference
T2 construct: endogenous in cells; host or cells: THP-1
T2 sequence (Q9NWZ3 1-460): T1 sequence (Q9NWZ3 1-460)
Protocol: 3.1. Based on the experimental method of immunoblot, i.e., Western Blot, THP-1 cell samples processed by gel electrophoresis were stained with specific antibodies, and the degradation activity of the compounds on the IRAK4 protein in THP-1 cells was determined by analyzing the position of the staining and the depth of the staining. The detection concentrations of the compounds were 0 μM, 0.3 μM, 1 μM, and 3 μM, and the compounds were used to treat the cells for 8 hours, 16 hours, 24 hours, and 48 hours. In this case, glyceraldehyde-3-phosphate dehydrogenase (GAPDH) was the internal reference protein for the assay.
THP-1 cells were spread into a 6-well plate at a density of 1.5×10^6 cells per mL, and incubated in a 37° C. cell culture incubator with 5% CO2 for 2 hours. The compound was diluted with DMSO to 0.6 mM, 0.2 mM, and 0.06 mM, respectively. 10 μL of compound solution was added to the corresponding wells, and the plate was incubated in the incubator for 16 hours, 24 hours, and 48 hours, respectively. The drug-treated THP-1 cells were collected from the wells, added with 120 μL of RIPA lysis buffer containing protease inhibitor, phosphatase inhibitor cocktail 2, and phosphatase inhibitor cocktail 3, and lysed on wet ice for 30 minutes. The cell lysate was then centrifuged at low temperature and high speed for 5 minutes, and the supernatant was collected. Referring to the instructions in the Pierce™ BCA Protein Assay Kit, the cell samples were tested for protein concentration.
The samples were adjusted to the same concentration using lysis buffer and NuPAGE® LDS sample buffer containing 1 M DTT. The samples were heated at 95° C. for 5 minutes and centrifuged at low temperature and high speed. 20 μL of prepared protein sample and 4 μL of PageRuler Prestained Protein Ladder were added to the gel wells. The mixture was electrophoresed at a voltage of 80 V for 0.5 hours, and then electrophoresed for another 1.5 hours after the voltage was adjusted to 120 V. The gel was removed and proteins in the gel were transferred to IBlot™ 2 Transfer Stack at a voltage of 20V. After successful membrane transfer, the bands were cut out at 65 kDa to 40 kDa and 40 kDa to 30 kDa, respectively. The membrane was blocked with 5% non-fat milk at room temperature for 1 hour. The membrane was washed three times with 1×TBST, and incubated with IRAK4 antibody working solution at 4° C. overnight. The IRAK4 antibody working solution was discarded, and the membrane was washed three times with 1×TBST. After the corresponding membrane was incubated with Goat Anti-Rabbit IgG H&L (HRP) working solution and Goat Anti-Mouse IgG H&L (HRP) working solution at room temperature for 1 hour, the antibody working solutions were discarded, and the membrane was washed three times with 1×TBST. Referring to the instructions in the SuperSignal™ West Femto Maximum Sensitivity Substrate Kit, the reagents in the kit were mixed in equal volume proportions to prepare a luminescent mixture, and the membrane was incubated for 1 minute and removed for exposure.
WB assay: The results 24 hours after administration at 1 μM were divided into estimated <25%, <50%, <75%, and <100%.

Structure (SMILES): CC(C)(O)c1cc2nn(CCN3CCN(CC(=O)NCCOCCOCCNc4cccc5c4C(=O)N(C4CCC(=O)NC4=O)C5=O)C3=O)cc2cc1NC(=O)c1cccc(C(F)(F)F)n1 (centres unmarked) [III-2]
- IC50 ([1]; Table 1): 100 to 1000 nM
- IC50 ([1]; Table 2): 100 to 1000 nM
- IC50 ([2]; Homo sapiens, THP-1, Table 3): ≥ 10000 nM
- IC50 ([2]; Table 4): ≥ 10000 nM

Structure (SMILES): CC(C)(O)c1cc2nn(CCN3CCN(CC(=O)NCCCCNc4cccc5c4C(=O)N(C4CCC(=O)NC4=O)C5=O)C3=O)cc2cc1NC(=O)c1cccc(C(F)(F)F)n1 (centres unmarked) [III-10]
- IC50 ([1]; Table 1): 100 to 1000 nM
- IC50 ([1]; Table 2): 100 to 1000 nM
- IC50 ([2]; Homo sapiens, THP-1, Table 3): 1000 to 10000 nM
- IC50 ([2]; Table 4): 1000 to 10000 nM

Structure (SMILES): CC(C)(O)c1cc2nn(CCN3CCN(CC(=O)N4CCC5(CC4)CCN(c4cccc6c4C(=O)N(C4CCC(=O)NC4=O)C6=O)CC5)C3=O)cc2cc1NC(=O)c1cccc(C(F)(F)F)n1 (centres unmarked) [III-11]
- IC50 ([1]; Table 1): 100 to 1000 nM
- IC50 ([1]; Table 2): 100 to 1000 nM
- IC50 ([2]; Homo sapiens, THP-1, Table 4): 1000 to 10000 nM

Structure (SMILES): COc1cc2c(cc1NC(=O)c1cccc(C(F)(F)F)n1)CN(CC(=O)N1CCC3(CC1)CCN(c1cccc4c1C(=O)N(C1CCC(=O)NC1=O)C4=O)CC3)C2=O (centres unmarked) [III-24]
- IC50 ([1]; Table 1): 100 to 1000 nM
- IC50 ([1]; Table 2): 100 to 1000 nM
- IC50 ([2]; Homo sapiens, THP-1, Table 3): 100 to 1000 nM
- IC50 ([2]; Table 4): 100 to 1000 nM

Structure (SMILES): COc1cc2c(cc1NC(=O)c1cccc(C(F)(F)F)n1)CN(CCC(C)(C)C(=O)N1CCC3(CC1)CCN(c1cccc4c1C(=O)N(C1CCC(=O)NC1=O)C4=O)CC3)C2=O (centres unmarked) [III-25]
- IC50 ([1]; Table 1): 100 to 1000 nM
- IC50 ([1]; Table 2): 100 to 1000 nM
- IC50 ([2]; Homo sapiens, THP-1, Table 3): 1000 to 10000 nM
- IC50 ([2]; Table 4): 1000 to 10000 nM

Structure (SMILES): COc1cc2c(cc1NC(=O)c1cccc(C(F)(F)F)n1)CN(CCC(C)(C)C(=O)N1CCC3(CCC(C(=O)N[C@H](C(=O)N4C[C@H](O)C[C@H]4C(=O)N[C@@H](C)c4ccc(-c5scnc5C)cc4)C(C)(C)C)CC3)CC1)C2=O [III-26]
- IC50 ([1]; Table 1): < 100 nM
- IC50 ([1]; Table 2): < 100 nM
- IC50 ([2]; Homo sapiens, THP-1, Table 3): 1000 to 10000 nM
- IC50 ([2]; Table 4): 1000 to 10000 nM

Structure (SMILES): COc1cc2nn(CCN3CCN(CC(=O)N4CCC5(CCC(C(=O)N[C@H](C(=O)N6C[C@H](O)C[C@H]6C(=O)N[C@@H](C)c6ccc(-c7scnc7C)cc6)C(C)(C)C)CC5)CC4)CC3)cc2cc1NC(=O)c1cccc(C(F)(F)F)n1 [III-29]
- IC50 ([1]; Table 1): < 100 nM
- IC50 ([1]; Table 2): < 100 nM
- IC50 ([2]; Homo sapiens, THP-1, Table 4): 1000 to 10000 nM

Structure (SMILES): COc1cc2nn(CCN3CCN(CC(=O)N4CCC5(CC4)CCN(c4ncc(Nc6cccc7c6C(=O)N(C6CCC(=O)NC6=O)C7=O)cn4)CC5)CC3)cc2cc1NC(=O)c1cccc(C(F)(F)F)n1 (centres unmarked) [III-30]
- IC50 ([1]; Table 2): < 100 nM
- IC50 ([2]; Homo sapiens, THP-1, Table 4): 1000 to 10000 nM

Structure (SMILES): COc1cc2nn(CCN3CCN(CC(=O)N4CC5(CC(CC(=O)N[C@H](C(=O)N6C[C@H](O)C[C@H]6C(=O)N[C@@H](C)c6ccc(-c7scnc7C)cc6)C(C)(C)C)C5)C4)CC3)cc2cc1NC(=O)c1cccc(C(F)(F)F)n1 [III-31]
- IC50 ([1]; Table 1): < 100 nM
- IC50 ([1]; Table 2): < 100 nM
- IC50 ([2]; Homo sapiens, THP-1, Table 4): 1000 to 10000 nM

Structure (SMILES): COc1cc2nn(CCN3CCN(CC(=O)N4CCC5(CCC(N[C@H](C(=O)N6C[C@H](O)C[C@H]6C(=O)N[C@@H](C)c6ccc(-c7scnc7C)cc6)C(C)(C)C)CC5)CC4)C3=O)cc2cc1NC(=O)c1cccc(C(F)(F)F)n1 [III-35]
- IC50 ([1]; Table 2): < 100 nM
- IC50 ([2]; Homo sapiens, THP-1, Table 4): 100 to 1000 nM

Structure (SMILES): COc1cc2nn(CCN3CCN(c4cccc5c4C(=O)N(C4CCC(=O)NC4=O)C5=O)CC3)cc2cc1NC(=O)c1cccc(C(F)(F)F)n1 (centres unmarked) [III-39]
- IC50 ([1]; Table 2): < 100 nM
- Western Blot results 24 hours after administration at a drug concentration of 1 μM [3]: <25%

Structure (SMILES): COc1cc2c(cc1NC(=O)c1cccc(C(F)(F)F)n1)CN(CCC(C)(C)C(=O)NC1CCN(c3cccc4c3C(=O)N(C3CCC(=O)NC3=O)C4=O)CC1)C2=O (centres unmarked) [III-41]
- IC50 ([1]; Table 2): < 100 nM
- Western Blot results 24 hours after administration at a drug concentration of 1 μM [3]: <25%

Structure (SMILES): COc1cc2nn(CCN3CC4CCC(C3)N4CC(=O)N3CCC4(CC3)CCN(c3cccc5c3C(=O)N(C3CCC(=O)NC3=O)C5=O)CC4)cc2cc1NC(=O)c1cccc(C(F)(F)F)n1 (centres unmarked) [III-54]
- IC50 ([1]; Table 2): < 100 nM
- Western Blot results 24 hours after administration at a drug concentration of 1 μM [3]: <25%

Structure (SMILES): COc1cc2nn(CCN3CCN(CC(=O)N4CCC5(CCC(Oc6cccc7c6C(=O)N(C6CCC(=O)NC6=O)C7=O)CC5)CC4)CC3)cc2cc1NC(=O)c1cccc(C(F)(F)F)n1 (centres unmarked) [III-56]
- IC50 ([1]; Table 2): < 100 nM
- Western Blot results 24 hours after administration at a drug concentration of 1 μM [3]: <25%
